{"source": "patent US7413729B2", "about": "“Sialic acid permease system” (priority 2005, dated 2008)", "key": {"[1]": {"test_system": "nontypeable Haemophilus influenzae", "details": "sialic acid 10 uM in plates, inhibitor 0.01-10 μM", "procedure": "Assay: Sialic acid 10 uM was incorporated into Brain Heart Infusion plates containing NAD and Hemin. The inhibitor was also added at 0.01 μM, 0.1 μM, 1 μM and 10 μM concentrations. Control plates were simultaneously prepared which lacked inhibitor. Results obtained from these plates represented the 100% sialic acid incorporation The inhibition assay was performed by plating 10^7 nontypeable Haemophilus influenzae onto each plate and allowed them to grow overnight in 5% CO2 at 37° C. After 16 hours, organisms were collected from the plate and separately diluted in distilled water to a density of 0.1 absorbance at 600 nm.\nAnalysis: These organisms were analyzed for sialic acid incorporation onto the surface of the organism. To accomplish this, one hundred microliters was placed in a microtiter well and allowed to dry overnight in a 37° C. dry incubator. The next day the plates were washed in a microtiter washer and 100 microliters of antibody 3F11 in TBS Tween-20 was placed in each well. Monoclonal antibody 3F11 binds the lactosamine epitope to which the sialic acid is attached. If sialic acid is present, 3F11 will not bind. If sialic acid is absent, 3F11 binds. The plates were then allowed to set at 37° C. in a moist chamber for two hours. The plates were washed and 100 microliters of a mouse anti-IgM phosphatase conjugate was added to each well. The plates was allowed to set in a 37° C. incubator for one hour. The plate was washed, and 100 microliters p-nitrophenol-phosphate was added to each well. The plate was allowed to set for 1 hour and the color reaction was read in a microtiter plate reader at an absorbance of 405 nm."}, "H. influenzae [2]": {"test_system": "H. influenzae", "assay": "Inhibition of sialylation of LOS", "assay_type": "cell-based", "details": "found by the inventors"}, "[3]": {"test_system": "influenza A neuraminidase", "details": "literature statement; cited from earlier work"}, "SiaP [4]": {"target": "T1, SiaP (Haemophilus influenzae, UniProt P44542)", "T1 construct": "made in house; host or cells: E. coli (PET15 vector)", "T1 sequence (P44542 24-329)": "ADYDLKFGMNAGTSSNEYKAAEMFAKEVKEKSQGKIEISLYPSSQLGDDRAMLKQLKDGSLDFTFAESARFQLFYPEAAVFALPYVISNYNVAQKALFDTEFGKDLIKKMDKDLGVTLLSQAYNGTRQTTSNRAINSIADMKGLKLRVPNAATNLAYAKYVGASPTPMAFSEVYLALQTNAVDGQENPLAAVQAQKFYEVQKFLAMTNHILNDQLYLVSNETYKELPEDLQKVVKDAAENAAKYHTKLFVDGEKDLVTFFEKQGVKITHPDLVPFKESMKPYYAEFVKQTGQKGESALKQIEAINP", "assay": "Biacore surface plasmon resonance, sialic acid binding to SiaP on CM5 sensor chip", "parameters": "species or system H. influenzae", "details": "for evidence of binding to SiaP: concentrations as high as 100 mM", "experimental": "Biacore® Analysis: Surface plasmon resonance analysis was performed to measure the affinity of binding of sialic acid to SiaP. These studies were performed on a Biacore® instrument using the CM5 sensor chip. SiaP was bound to the chip and increasing concentrations of sialic acid were introduced into the instrument. […] Increasing concentration of sialic acid up to 50 mM show minimal increase in binding. Based on the calculations from this analysis, an association constant of 1.7×10^7 M was calculated."}, "siaT": {"target": "siaT (Haemophilus influenzae, UniProt P44542)", "sequence (P44542 24-329)": "as above", "assay": "Biacore analysis of Neu5Ac binding to siaT", "parameters": "species or system H. influenzae", "details": "for binding to siaT: concentrations as high as 200 mM; for binding to siaP (summary statement): restates the Example 3 binding studies", "from_the_text": "In one embodiment, one can use the Biacore® screening method for molecules that bind to SiaT. Briefly, one uses a Biacore® instrument to measure bimolecular binding, establish a high throughput system to search for molecules which bind to SiaT or SiaP. SiaT expressing a His tag is bound to a sensor NTA chip in the Biacore® instrument. The Biacore® instrument measures binding events on the sensor chip surface, so that the interactant attached to the surface determines the specificity of the analysis. Testing the specificity of an interaction involves simply asking whether different molecules can bind to the immobilized interactant. Binding gives an immediate change in the SPR signal, so that it is directly apparent whether an interaction takes place or not. As sample is passed over the sensor surface, the progress of binding directly reflects the rate at which the interaction occurs. Injection of sample is followed by buffer flow during which the response reflects the rate of dissociation of the complex on the surface. Kinetic rate constants for the binding and dissociation can be obtained by fitting the results to mathematical descriptions of interaction models. Binding affinities can be obtained either from rate constant measurements (the dissociation constant KD is the ratio of the rate constants kd/ka for a 1:1 interaction) or by measuring the steady state level of binding as a function of sample concentration. The rate of binding of an interactant to a given surface is a function of the interactant concentration, so that measurements with the Biacore® instrument can be used to determine concentration of a specific substance in pure solution or in complex mixtures. The selectivity, dynamic range and other assay performance characteristics are determined largely by the choice of binding molecule attached to the surface. Thus, one can rapidly screen large number of candidate molecules for binding to the SiaT and develop information about rate of binding and dissociation constants. Molecules that have a high binding affinity and dissociate poorly are examined as candidates for study of inhibition of ^3H-sialic acid uptake by nontypeable H. influenzae.\nThe inventors performed Biacore® analysis of Neu5Ac binding to siaT (FIG. 19). […] Binding peaked at 22 mM and calculations estimated the kD of siaT for Neu5Ac to be 1.7×10^−8."}, "SiaP [5]": {"target": "T1, SiaP", "assay": "Isothermal titration calorimetry of SiaP with sialic acid", "assay_type": "binding, H. influenzae", "details": "ITC", "experimental": "Calorimetry and Dynamic Light Scattering. Isothermal titration calorimetry (ITC) experiments were performed in order to determine the binding affinity of SiaP for sialic acid. […] Dynamic light scattering (DLS) experiments were performed to determine the hydrodynamic radius of SiaP with and without sialic acid. […] This was verified by two types of experiments. In the first experiment, excess sialic acid was incubated with SiaP for several hours before DLS experiments were performed. In the second, DLS was performed on protein taken from the calorimeter following an ITC experiment."}, "His-tagged siaP": {"target": "His-tagged siaP (Haemophilus influenzae, UniProt P44542)", "sequence (P44542 24-329)": "as above", "assay": "Binding of 3H-Neu5Ac to His-tagged siaP bound to a nickel affinity resin", "parameters": "species or system H. influenzae", "details": "three experiments; controls His-tagged luxS resin and resin without protein", "from_the_text": "The inventors also determined whether ^3H-Neu5Ac would bind to His-tagged siaP bound to a nickel affinity resin. […] Two controls are included, the His-tagged luxS protein bound to a nickel affinity resin and nickel affinity with no protein bound to it."}, "SiaP [6]": {"target": "T1, SiaP", "assay": "Binding of 3H-labelled sialic acid to SiaP-Sepharose conjugate", "parameters": "species or system H. influenzae", "details": "LuxS-Sepharose and Sepharose-only controls", "experimental": "SiaP binds sialic acid. SiaP was overexpressed in a PET15 vector and purified to homogeneity from E. coli. It was then crosslinked to Sepharose® beads and the ability of the SiaP-Sepharose® conjugate to bind sialic acid was assessed using ^3H-labelled sialic acid. […] Non-specific binding was not observed in this system as evidenced by the LuxS-Sepharose® and Sepharose®-only controls (FIG. 26)."}, "H. influenzae [7]": {"test_system": "H. influenzae", "details": "Goon et al. PNAS 100, 3089-3094; cited from earlier work"}}}
{"molecule": "CC(=O)N[C@H]1[C@H]([C@H](O)[C@H](O)CO)O[C@@](Oc2ccc3c(C)cc(=O)oc3c2)(C(=O)[O-])C[C@@H]1O.O.[Na+]", "note": "[2′-(4-Methylumbelliferyl)-α-D-N-acetylneuraminic acid sodium salt hydrate]", "values": [{"measurement": "effect on Neu5Ac incorporation into H. influenzae", "setting": "[1]", "value": "did not have any effect"}]}
{"molecule": "CC(=O)N[C@H]1[C@H]([C@H](O)[C@H](O)CO)OC(O)(C(=O)O)C(F)[C@@H]1O", "note": "(stereo partly drawn) [3-fluorosialic acid, 3-fluoro-N-acetylneuraminic acid]", "values": [{"measurement": "inhibition of sialylation of LOS", "setting": "H. influenzae [2]", "value": "highly effective"}, {"measurement": "inhibition of influenza A neuraminidase", "setting": "[3]", "value": "potent and specific inhibitors"}, {"measurement": "reduction of sialic acid uptake", "setting": "[1]; NTHi strain 2019, versus no inhibitor", "value": 60, "unit": "%"}]}
{"molecule": "CC(=O)N[C@H]1[C@H]([C@H](O)[C@H](O)CO)OC(C(=O)O)=C[C@@H]1O", "note": "[DDNA, N-acetyl-2,3-didehydro-2-deoxyneuraminic acid]", "values": [{"measurement": "inhibition of influenza A neuraminidase", "setting": "[3]", "value": "potent and specific inhibitors"}]}
{"molecule": "CC(=O)N[C@H]1C(O)O[C@H](CO)[C@@H](O)[C@@H]1O", "note": "(stereo partly drawn) [N-acetylglucosamine]", "values": [{"measurement": "evidence of binding to SiaP", "setting": "SiaP [4]", "value": "no evidence of binding"}]}
{"molecule": "CC(=O)N[C@@H]1C(O)O[C@H](CO)[C@@H](O)[C@@H]1O", "note": "(stereo partly drawn) [N-acetylmannosamine]", "values": [{"measurement": "binding to siaT", "setting": "siaT; Biacore", "value": "no binding"}, {"measurement": "binding to siaP (summary statement)", "setting": "siaT", "value": "failed to bind"}, {"measurement": "evidence of binding to SiaP", "setting": "SiaP [4]", "value": "no evidence of binding"}]}
{"molecule": "CC(=O)N[C@H]1[C@H]([C@H](O)[C@H](O)CO)OC(O)(C(=O)O)C[C@@H]1O", "note": "(stereo partly drawn) [Neu5Ac, N-acetylneuraminic acid]", "values": [{"measurement": "Neu5Ac concentration at which binding peaked", "setting": "siaT; Biacore, Neu5Ac 10 to 50 mM", "value": 22, "unit": "mM"}, {"measurement": "Kd", "setting": "siaT; Biacore, Neu5Ac 10 to 50 mM, estimated by calculation", "value": 17, "unit": "nM"}, {"measurement": "binding to siaP (summary statement)", "setting": "siaT", "value": "extremely high affinity"}, {"measurement": "sialic acid concentration up to which association with SiaP increased", "setting": "SiaP [4]; up to 50 mM minimal further increase", "value": 20, "unit": "mM"}, {"measurement": "n value calculated from the binding data", "setting": "SiaP [5]", "value": "always less than one"}, {"measurement": "Kd", "setting": "SiaP [5]; three independent experiments", "value": 130, "unit": "nM"}, {"measurement": "binding of 3H-Neu5Ac to resin-bound protein", "setting": "His-tagged siaP", "value": "bound only to the resin to which siaT was bound"}, {"measurement": "binding of sialic acid by SiaP-Sepharose", "setting": "SiaP [6]", "value": "capable of binding sialic acid"}]}
{"molecule": "CC(=O)N[C@H]1[C@H]([C@H](O)[C@H](O)CO)OC(C(=O)O)=C[C@@H]1N=C(N)N", "note": "[Relenza]", "values": [{"measurement": "inhibition of influenza A neuraminidase", "setting": "[3]", "value": "potent and specific inhibitors"}, {"measurement": "effect on Neu5Ac incorporation into H. influenzae", "setting": "[1]", "value": "did not have any effect"}]}
{"molecule": "CCCCCCCC(=O)N[C@H]1C([C@H](O)[C@H](O)CO)OC(O)(C(=O)O)C[C@H]1O", "note": "(stereo partly drawn) [SiaOct]", "values": [{"measurement": "inhibition of LOS sialylation", "setting": "H. influenzae [7]", "value": "inhibitor of LOS sialylation"}]}
{"molecule": "CCOC(=O)C1=C[C@@H](OC(CC)CC)[C@H](NC(C)=O)[C@@H](N)C1", "note": "[Tamiflu]", "values": [{"measurement": "inhibition of influenza A neuraminidase", "setting": "[3]", "value": "potent and specific inhibitors"}, {"measurement": "effect on Neu5Ac incorporation into H. influenzae", "setting": "[1]", "value": "did not have any effect"}]}
{"molecule": "O=C(CO)[C@@H](O)[C@H](O)[C@H](O)CO", "note": "[fructose]", "values": [{"measurement": "binding to siaT", "setting": "siaT; Biacore", "value": "no binding"}]}
{"molecule": "C[C@H](O)[C@@H](O)[C@@H](O)[C@H](O)C=O", "note": "[fucose]", "values": [{"measurement": "binding to siaP (summary statement)", "setting": "siaT", "value": "failed to bind"}]}
{"molecule": "O=C[C@H](O)[C@@H](O)[C@@H](O)[C@H](O)CO", "note": "[galactose]", "values": [{"measurement": "binding to siaT", "setting": "siaT; Biacore", "value": "no binding"}, {"measurement": "binding to siaP (summary statement)", "setting": "siaT", "value": "failed to bind"}, {"measurement": "evidence of binding to SiaP", "setting": "SiaP [4]", "value": "no evidence of binding"}]}
{"molecule": "N[C@H]1C(O)O[C@H](CO)[C@@H](O)[C@@H]1O", "note": "(stereo partly drawn) [glucosamine]", "values": [{"measurement": "evidence of binding to SiaP", "setting": "SiaP [4]", "value": "no evidence of binding"}]}
{"molecule": "O=C[C@H](O)[C@@H](O)[C@H](O)CO", "note": "[xylose]", "values": [{"measurement": "binding to siaT", "setting": "siaT; Biacore", "value": "no binding"}, {"measurement": "binding to siaP (summary statement)", "setting": "siaT", "value": "failed to bind"}]}
